Data on two compounds can be found in patent US4448783A, “Substituted pyrazoline, and its use in treatment of gastro-intestinal disturbances” (Burroughs Wellcome Co., priority 1982, dated 1984).

This assay deals with response of the rabbit colon in vitro to bradykinin. The experiment in a line: Inhibition of the bradykinin response of rabbit colon mucosa in vitro (transepithelial potential difference and short circuit current, Ussing chambers). The class given is cell-based, New Zealand white male rabbits. Conditions: Oryctolagus cuniculus, 0.5 h, incubated 30 min prior to bradykinin (1×10^-6 M), read-out: ED50 (the source's name). The source says: Measurement of transepithelial potential difference (PD) and short circuit current (Isc)
New Zealand white male rabbits (2-3 kg) were fed standard rabbit chow and water ad lib. Rabbits were killed by cervical dislocation, and the distal colon or ileum removed rapidly, opened along its mesenteric border, and rinsed clean of luminal contents with cold Ringer's solution containing, in mmol/liter NaCl, 114; KCl, 5; NaH2 PO4, 0.3; CaCl2, 1.25; MgCl2, 1.1; and NaHCO3, 25 (standard Ringer). Before use, tissues were maintained in ice-cold Ringer with 95% O2 /5% CO2. The standard ringer solution also contained captopril (5×10^-6 M) to inhibit bradykinin metabolism.
The serosa and two muscle layers were removed by placing a 10 cm strip of ileum, serosa up, on a Lucite plate, making a transverse cut through both external muscle layers with a razor blade, and stripping off the layers longitudinally.
Transepithelial electrical potential difference (PD), total conductance (Gt), and short circuit current (Isc) were measured as described by M. Field et al (A M J. Physiol, 220 1388-1396). Six pieces of mucosa were mounted in Ussing chambers (1.12 cm^2 cross-sectional area), and bathed with 8 ml of standard Ringer on each side. Solutions were circulated by gas lift and maintained at 37° C. in water jacketed reservoirs. […]

Consider `NC1=NN(c2cccc(C(F)(F)F)c2)CC1` [R^1 H, 3-amino-1-(3-trifluoromethylphenyl)-2-pyrazoline], for which the IC50 amounted to 200 µM.
As for `CNC1=NN(c2cccc(C(F)(F)F)c2)CC1` [R^1 CH3, 3-methylamino-1-(3-trifluoromethylphenyl)-2-pyrazoline], the figure is 50 µM.
